Laboratory results published in ChEMBL document CHEMBL4507274 (2021).

Columns and labels:
[1] = target: Phosphatidylinositol 4,5-bisphosphate 3-kinase catalytic subunit alpha isoform (Homo sapiens) (UniProt P42336); assay: PIK3 (h) Upstate kinase activity assay; conditions: Compound concentration 10.0 uM
[2] = target: Tyrosine-protein kinase Fyn (Homo sapiens) (UniProt P06241); assay: Fyn (h) Upstate kinase activity assay; conditions: Compound concentration 10.0 uM
K562 = assay: Leukemia K562 cell line MDS Pharma Services Proliferation Assay; type: functional, cell-based, Homo sapiens
[3] = target: T1, Serine/threonine-protein kinase Sgk1 (Homo sapiens) (UniProt O00141); assay: SGK (h) Upstate kinase activity assay; conditions: Compound concentration 10.0 uM
T1 sequence (whole entry): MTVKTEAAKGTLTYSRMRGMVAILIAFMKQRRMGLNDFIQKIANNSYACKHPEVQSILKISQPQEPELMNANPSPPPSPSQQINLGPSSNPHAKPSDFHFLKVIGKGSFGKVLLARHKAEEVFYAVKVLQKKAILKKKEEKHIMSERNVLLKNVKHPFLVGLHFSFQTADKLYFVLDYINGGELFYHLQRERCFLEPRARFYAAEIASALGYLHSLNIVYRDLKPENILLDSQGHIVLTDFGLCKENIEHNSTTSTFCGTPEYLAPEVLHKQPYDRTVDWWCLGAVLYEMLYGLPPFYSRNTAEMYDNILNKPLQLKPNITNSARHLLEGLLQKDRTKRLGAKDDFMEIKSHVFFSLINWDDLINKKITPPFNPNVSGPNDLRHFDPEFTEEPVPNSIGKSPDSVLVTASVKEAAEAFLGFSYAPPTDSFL

[4] = target: RAC-beta serine/threonine-protein kinase (Homo sapiens) (UniProt P31751); assay: PKBbeta (h) Upstate kinase activity assay; conditions: Compound concentration 10.0 uM
[5] = target: Glycogen synthase kinase-3 beta (Homo sapiens) (UniProt P49841); assay: GSK3beta (h) Upstate kinase activity assay; conditions: Compound concentration 10.0 uM
ACHN = assay: Kidney ACHN cell line MDS Pharma Services Proliferation Assay; type: functional, cell-based, Homo sapiens
[6] = target: Tyrosine-protein kinase Fgr (Homo sapiens) (UniProt P09769); assay: Fgr (h) Upstate kinase activity assay; conditions: Compound concentration 10.0 uM
[7] = target: Casein kinase I isoform delta (Homo sapiens) (UniProt P48730); assay: CK1delta (h) Upstate kinase activity assay; conditions: Compound concentration 10.0 uM
SK-N-MC = assay: Neuroepithelioma SK-N-MC cell line MDS Pharma Services Proliferation Assay; type: functional, cell-based, Homo sapiens
[8] = target: D(3) dopamine receptor (Homo sapiens) (UniProt P35462); conditions: Compound concentration 10.0 uM
[9] = target: Ribosomal protein S6 kinase alpha-2 (Homo sapiens) (UniProt Q15349); assay: Rsk3 (h) Upstate kinase activity assay; conditions: Compound concentration 10.0 uM
[10] = target: Receptor-type tyrosine-protein kinase FLT3 (Homo sapiens) (UniProt P36888); conditions: Compound concentration 10.0 uM
[11] = Lung NCI-1-1460 cell line MDS Pharma Services Proliferation Assay; type: functional, cell-based, Homo sapiens
[12] = target: Protein kinase C gamma type (Homo sapiens) (UniProt P05129); assay: PKCgamma (h) Upstate kinase activity assay; conditions: Compound concentration 10.0 uM
[13] = target: Tyrosine-protein kinase Yes (Homo sapiens) (UniProt P07947); assay: Yes (h) Upstate kinase activity assay; conditions: Compound concentration 10.0 uM
[14] = target: Ribosomal protein S6 kinase alpha-1 (Homo sapiens) (UniProt Q15418); assay: Rsk1 (h) Upstate kinase activity assay; conditions: Compound concentration 10.0 uM
[15] = target: Sigma intracellular receptor 2 (Homo sapiens) (UniProt Q5BJF2); conditions: Compound concentration 10.0 uM
[16] = Lymphoma1-1331-IJ- JAl cell line MDS Pharma Services Proliferation Assay; type: functional, cell-based, Homo sapiens
[17] = target: Glycogen synthase kinase-3 alpha (Homo sapiens) (UniProt P49840); assay: GSK3alpha (h) Upstate kinase activity assay; conditions: Compound concentration 10.0 uM
[18] = target: Mitogen-activated protein kinase 8 (Homo sapiens) (UniProt P45983); assay: JNK1alpha1 (h) Upstate kinase activity assay; conditions: Compound concentration 10.0 uM
[19] = target: Ribosomal protein S6 kinase beta-1 (Homo sapiens) (UniProt P23443); assay: […] (h) Upstate kinase activity assay; conditions: Compound concentration 10.0 uM
[20] = target: ALK tyrosine kinase receptor (Homo sapiens) (UniProt Q9UM73); assay: ALK (h) Upstate kinase activity assay; conditions: Compound concentration 10.0 uM
[21] = target: Serine/threonine-protein kinase N2 (Homo sapiens) (UniProt Q16513); assay: PRK2 (h) Upstate kinase activity assay; conditions: Compound concentration 10.0 uM
[22] = target: RAF proto-oncogene serine/threonine-protein kinase (Homo sapiens) (UniProt P04049); assay: c-RAF (h) Upstate kinase activity assay; conditions: Compound concentration 10.0 uM
[23] = target: Tyrosine-protein kinase SYK (Homo sapiens) (UniProt P43405); assay: Syk (h) Upstate kinase activity assay; conditions: Compound concentration 10.0 uM
Rattus norvegicus = species: Rattus norvegicus; conditions: Compound concentration 10.0 uM
[24] = target: Serine/threonine-protein kinase pim-1 (Homo sapiens) (UniProt P11309); assay: Pim-1 (h) Upstate kinase activity assay; conditions: Compound concentration 10.0 uM
[25] = target: Cyclin-dependent kinase 3 (Homo sapiens) (UniProt Q00526); assay: CDK3/ cyclin E (h) Upstate kinase activity assay; conditions: Compound concentration 10.0 uM
[26] = target: AMP-activated protein kinase, AMPK (Rattus norvegicus) (UniProt P54645+Q09137+P80386+P80385+Q9QZH4+Q6V7V4+D4A7E4); assay: AMPK (r) Upstate kinase activity assay; type: protein-complex assay; conditions: Compound concentration 10.0 uM
[27] = target: Tyrosine-protein kinase Fes/Fps (Homo sapiens) (UniProt P07332); assay: Fes (h) Upstate kinase activity assay; conditions: Compound concentration 10.0 uM
[28] = system: Epidermal growth factor receptor (Homo sapiens), P00533 [L858R]; conditions: Compound concentration 100.0 nM
[29] = target: Alpha-2C adrenergic receptor (Homo sapiens) (UniProt P18825); conditions: Compound concentration 10.0 uM
[30] = target: Alpha-1D adrenergic receptor (Homo sapiens) (UniProt P25100); conditions: Compound concentration 10.0 uM
[31] = Homo sapiens, Lymphoma1-1331-IJ- JAl

Chain of Serine/threonine-protein kinase pim-1 (Homo sapiens) (P11309 whole entry, looked up): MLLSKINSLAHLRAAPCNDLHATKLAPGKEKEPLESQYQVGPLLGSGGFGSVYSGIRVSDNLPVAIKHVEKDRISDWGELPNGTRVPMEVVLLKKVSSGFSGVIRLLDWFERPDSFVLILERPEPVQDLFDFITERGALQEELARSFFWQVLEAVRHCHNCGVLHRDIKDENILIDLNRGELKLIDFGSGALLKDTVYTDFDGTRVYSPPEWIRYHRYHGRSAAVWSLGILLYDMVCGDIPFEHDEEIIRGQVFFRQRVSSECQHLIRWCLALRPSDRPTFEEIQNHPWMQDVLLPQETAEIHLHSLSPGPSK
Chain of Alpha-1D adrenergic receptor (Homo sapiens) (P25100 whole entry): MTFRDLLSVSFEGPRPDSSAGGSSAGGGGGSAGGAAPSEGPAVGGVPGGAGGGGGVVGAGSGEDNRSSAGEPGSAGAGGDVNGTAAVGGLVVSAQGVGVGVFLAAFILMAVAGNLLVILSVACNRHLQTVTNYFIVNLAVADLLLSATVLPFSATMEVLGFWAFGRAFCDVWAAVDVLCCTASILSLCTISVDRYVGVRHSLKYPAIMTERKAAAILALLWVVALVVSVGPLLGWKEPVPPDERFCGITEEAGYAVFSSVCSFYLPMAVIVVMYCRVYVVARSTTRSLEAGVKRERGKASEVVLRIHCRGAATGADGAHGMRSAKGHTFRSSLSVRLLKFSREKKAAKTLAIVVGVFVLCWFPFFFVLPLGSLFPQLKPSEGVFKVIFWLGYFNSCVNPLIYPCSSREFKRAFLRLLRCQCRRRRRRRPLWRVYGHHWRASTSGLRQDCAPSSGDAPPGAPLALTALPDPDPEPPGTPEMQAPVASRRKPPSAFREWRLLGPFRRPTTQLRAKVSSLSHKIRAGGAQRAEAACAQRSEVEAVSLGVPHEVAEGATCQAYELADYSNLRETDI
Chain of Glycogen synthase kinase-3 alpha (Homo sapiens) (P49840 2-483 limits assumed): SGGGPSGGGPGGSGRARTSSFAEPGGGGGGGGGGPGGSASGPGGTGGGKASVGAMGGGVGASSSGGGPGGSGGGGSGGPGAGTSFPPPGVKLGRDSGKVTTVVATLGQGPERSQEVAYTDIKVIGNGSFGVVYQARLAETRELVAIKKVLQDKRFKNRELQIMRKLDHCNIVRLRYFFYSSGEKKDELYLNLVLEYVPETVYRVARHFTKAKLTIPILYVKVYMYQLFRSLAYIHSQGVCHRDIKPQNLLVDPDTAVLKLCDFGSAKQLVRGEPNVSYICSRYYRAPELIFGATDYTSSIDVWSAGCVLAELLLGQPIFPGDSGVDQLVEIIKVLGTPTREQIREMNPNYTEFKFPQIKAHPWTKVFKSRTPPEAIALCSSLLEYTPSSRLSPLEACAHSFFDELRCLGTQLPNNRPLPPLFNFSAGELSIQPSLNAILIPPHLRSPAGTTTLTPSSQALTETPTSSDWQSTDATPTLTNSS
Chain of Mitogen-activated protein kinase 8 (Homo sapiens) (P45983 whole entry): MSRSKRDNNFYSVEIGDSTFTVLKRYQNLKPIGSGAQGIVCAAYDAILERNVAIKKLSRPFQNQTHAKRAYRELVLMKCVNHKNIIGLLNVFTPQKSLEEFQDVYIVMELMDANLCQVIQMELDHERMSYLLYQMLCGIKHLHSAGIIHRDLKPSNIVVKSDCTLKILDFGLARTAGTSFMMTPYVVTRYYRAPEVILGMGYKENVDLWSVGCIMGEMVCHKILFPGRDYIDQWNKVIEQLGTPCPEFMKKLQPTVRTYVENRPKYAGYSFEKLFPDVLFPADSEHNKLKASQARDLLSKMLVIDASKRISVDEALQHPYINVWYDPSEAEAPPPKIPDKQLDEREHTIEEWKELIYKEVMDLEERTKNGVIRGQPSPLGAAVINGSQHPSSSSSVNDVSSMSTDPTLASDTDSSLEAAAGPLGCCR
Chain of Tyrosine-protein kinase Fgr (Homo sapiens) (P09769 2-529 limits assumed): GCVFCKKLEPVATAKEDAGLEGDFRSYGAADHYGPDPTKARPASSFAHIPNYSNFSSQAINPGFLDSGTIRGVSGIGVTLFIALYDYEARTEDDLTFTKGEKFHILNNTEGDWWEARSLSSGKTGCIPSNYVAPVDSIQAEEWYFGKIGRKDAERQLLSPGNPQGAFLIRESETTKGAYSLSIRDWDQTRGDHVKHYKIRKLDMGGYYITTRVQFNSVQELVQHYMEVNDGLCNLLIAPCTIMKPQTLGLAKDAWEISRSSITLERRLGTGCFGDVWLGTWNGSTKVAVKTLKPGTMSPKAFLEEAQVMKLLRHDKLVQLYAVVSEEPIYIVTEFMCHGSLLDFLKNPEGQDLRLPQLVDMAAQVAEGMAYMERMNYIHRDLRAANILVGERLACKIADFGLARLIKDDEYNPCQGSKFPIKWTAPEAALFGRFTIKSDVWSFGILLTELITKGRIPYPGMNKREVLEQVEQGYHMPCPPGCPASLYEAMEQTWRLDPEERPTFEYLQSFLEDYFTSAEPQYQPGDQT
Chain of Casein kinase I isoform delta (Homo sapiens) (P48730 whole entry, looked up, canonical isoform): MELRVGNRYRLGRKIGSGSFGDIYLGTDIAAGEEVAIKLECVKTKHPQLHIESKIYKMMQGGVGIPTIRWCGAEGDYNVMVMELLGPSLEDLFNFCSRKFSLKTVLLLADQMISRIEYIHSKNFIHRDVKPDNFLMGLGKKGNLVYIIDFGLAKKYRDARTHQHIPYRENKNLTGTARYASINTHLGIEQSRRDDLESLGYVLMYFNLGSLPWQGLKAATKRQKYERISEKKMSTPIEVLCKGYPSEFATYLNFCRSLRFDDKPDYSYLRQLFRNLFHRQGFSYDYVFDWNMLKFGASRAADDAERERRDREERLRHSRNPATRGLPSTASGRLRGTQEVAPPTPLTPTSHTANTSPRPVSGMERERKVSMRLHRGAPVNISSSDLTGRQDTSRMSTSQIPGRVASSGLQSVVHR
Chain of Ribosomal protein S6 kinase beta-1 (Homo sapiens) (P23443 whole entry, looked up): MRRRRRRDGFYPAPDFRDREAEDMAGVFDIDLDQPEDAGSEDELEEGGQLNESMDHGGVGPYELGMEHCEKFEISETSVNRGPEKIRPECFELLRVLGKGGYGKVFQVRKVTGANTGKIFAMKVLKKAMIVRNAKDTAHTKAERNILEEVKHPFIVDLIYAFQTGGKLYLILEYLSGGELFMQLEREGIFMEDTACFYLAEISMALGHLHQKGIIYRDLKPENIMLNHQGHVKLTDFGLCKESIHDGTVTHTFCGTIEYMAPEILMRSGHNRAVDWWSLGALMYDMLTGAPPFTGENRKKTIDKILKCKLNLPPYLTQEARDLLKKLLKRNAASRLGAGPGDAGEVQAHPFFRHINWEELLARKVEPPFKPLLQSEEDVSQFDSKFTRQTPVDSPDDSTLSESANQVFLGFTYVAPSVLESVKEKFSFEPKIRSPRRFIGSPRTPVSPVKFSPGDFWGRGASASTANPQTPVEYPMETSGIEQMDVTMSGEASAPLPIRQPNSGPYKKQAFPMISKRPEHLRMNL
Chain of Tyrosine-protein kinase Yes (Homo sapiens) (P07947 2-543 limits assumed): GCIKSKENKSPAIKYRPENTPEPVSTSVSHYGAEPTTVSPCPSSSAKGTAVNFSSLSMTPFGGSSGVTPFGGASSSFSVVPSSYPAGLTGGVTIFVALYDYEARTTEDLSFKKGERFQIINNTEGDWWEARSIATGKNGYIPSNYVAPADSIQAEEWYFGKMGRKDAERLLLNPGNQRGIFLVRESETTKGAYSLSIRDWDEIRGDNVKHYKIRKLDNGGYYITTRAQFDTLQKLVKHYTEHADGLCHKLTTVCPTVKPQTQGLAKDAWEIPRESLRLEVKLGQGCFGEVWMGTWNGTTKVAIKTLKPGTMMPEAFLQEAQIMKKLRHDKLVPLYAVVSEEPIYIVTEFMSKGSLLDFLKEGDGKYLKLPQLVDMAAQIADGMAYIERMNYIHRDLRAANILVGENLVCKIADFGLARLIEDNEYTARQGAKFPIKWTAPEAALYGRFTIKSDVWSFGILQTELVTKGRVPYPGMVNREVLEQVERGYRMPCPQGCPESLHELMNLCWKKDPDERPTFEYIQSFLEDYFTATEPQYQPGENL
Chain of Ribosomal protein S6 kinase alpha-2 (Homo sapiens) (Q15349 whole entry): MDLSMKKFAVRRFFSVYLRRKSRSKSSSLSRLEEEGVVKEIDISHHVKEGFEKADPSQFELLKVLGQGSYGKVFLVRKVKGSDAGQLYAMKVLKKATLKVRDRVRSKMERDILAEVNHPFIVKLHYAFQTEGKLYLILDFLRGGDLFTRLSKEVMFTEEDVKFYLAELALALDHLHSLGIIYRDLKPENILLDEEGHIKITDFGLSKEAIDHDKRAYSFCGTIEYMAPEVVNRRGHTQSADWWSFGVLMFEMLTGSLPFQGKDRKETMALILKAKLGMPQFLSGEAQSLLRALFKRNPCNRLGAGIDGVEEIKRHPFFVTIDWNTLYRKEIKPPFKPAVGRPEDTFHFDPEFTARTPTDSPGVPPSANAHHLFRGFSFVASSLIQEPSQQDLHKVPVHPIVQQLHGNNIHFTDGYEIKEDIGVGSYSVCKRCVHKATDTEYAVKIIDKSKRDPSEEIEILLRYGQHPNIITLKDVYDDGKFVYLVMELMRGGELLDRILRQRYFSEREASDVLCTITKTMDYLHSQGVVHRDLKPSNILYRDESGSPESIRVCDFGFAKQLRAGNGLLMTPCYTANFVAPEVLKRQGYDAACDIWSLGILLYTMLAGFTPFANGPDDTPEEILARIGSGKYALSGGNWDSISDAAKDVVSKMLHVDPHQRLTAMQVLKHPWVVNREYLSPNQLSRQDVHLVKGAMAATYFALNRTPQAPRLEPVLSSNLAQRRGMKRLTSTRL
Chain of Alpha-2C adrenergic receptor (Homo sapiens) (P18825 whole entry): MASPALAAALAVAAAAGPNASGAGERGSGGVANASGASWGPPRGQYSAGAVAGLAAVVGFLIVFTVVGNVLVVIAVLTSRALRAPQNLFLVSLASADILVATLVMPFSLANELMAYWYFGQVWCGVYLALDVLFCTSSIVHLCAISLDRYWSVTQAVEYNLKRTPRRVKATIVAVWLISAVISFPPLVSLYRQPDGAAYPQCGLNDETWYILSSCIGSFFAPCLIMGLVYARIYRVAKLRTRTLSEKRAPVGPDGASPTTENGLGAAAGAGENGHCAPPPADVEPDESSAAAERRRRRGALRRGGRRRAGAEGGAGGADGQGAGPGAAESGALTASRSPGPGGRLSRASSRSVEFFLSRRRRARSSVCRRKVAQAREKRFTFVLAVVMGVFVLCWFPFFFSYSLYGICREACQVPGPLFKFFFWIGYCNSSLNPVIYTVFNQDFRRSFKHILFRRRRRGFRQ

With `Cc1c[nH]c2nccc(Oc3c(F)cc(Nc4cc(Cl)nc(N)n4)cc3F)c12` [BAY-549] the inhibition [1] was -3%, the inhibition [2] was 14% and the IC50 (K562; Homo sapiens, K562) was 8.3 µM. The TGI (K562; Homo sapiens, K562) was greater than 100 µM, the CC50 (K562; Homo sapiens, K562, read-out: LC50 (the source's name)) was greater than 100 µM and the “Mean % growth (n = 2) for 10.0 µM probe concentration” value (K562; ± SEM 3 % growth) was 42%. The “Mean % growth (n = 2) for 1.0 µM probe concentration” value (K562; ± SEM 4 % growth) was 69%, the “Mean % growth (n = 2) for 0.1 µM probe concentration” value (K562; ± SEM 5 % growth) was 92% and the “Mean % growth (n = 2) for 100.0 µM probe concentration” value (K562; ± SEM 6 % growth) was 32%. The “Mean % growth (n = 2) for 0.01 µM probe concentration” value (K562; ± SEM 7 % growth) was 95%, the inhibition [3] was 76% and the inhibition [4] was 85%. For the same compound, the inhibition [5] was -1%, the “Mean % growth (n = 2) for 10.0 µM probe concentration” value (ACHN) was 27% and the IC50 (ACHN; Homo sapiens, ACHN) was 3.6 µM. The TGI (ACHN; Homo sapiens, ACHN) was 32 µM, the CC50 (ACHN; Homo sapiens, ACHN, read-out: LC50 (the source's name)) was greater than 100 µM and the “Mean % growth (n = 2) for 0.01 µM probe concentration” value (ACHN; ± SEM 1 % growth) was 103%. The “Mean % growth (n = 2) for 0.1 µM probe concentration” value (ACHN; ± SEM 2 % growth) was 106%, the “Mean % growth (n = 2) for 100.0 µM probe concentration” value (ACHN; ± SEM 4 % growth) was -25% and the “Mean % growth (n = 2) for 1.0 µM probe concentration” value (ACHN; ± SEM 10 % growth) was 60%. The inhibition [6] was 27%, the inhibition [7] was 65% and the IC50 (SK-N-MC; Homo sapiens, SK-N-MC) was 7.9 µM. The TGI (SK-N-MC; Homo sapiens, SK-N-MC) was 20 µM, the CC50 (SK-N-MC; Homo sapiens, SK-N-MC, read-out: LC50 (the source's name)) was 52 µM and the “Mean % growth (n = 2) for 10.0 µM probe concentration” value (SK-N-MC; ± SEM 3 % growth) was 38%. The “Mean % growth (n = 2) for 0.1 µM probe concentration” value (SK-N-MC; ± SEM 4 % growth) was 103%, the “Mean % growth (n = 2) for 1.0 µM probe concentration” value (SK-N-MC; ± SEM 5 % growth) was 98% and the “Mean % growth (n = 2) for 0.01 µM probe concentration” value (SK-N-MC; ± SEM 6 % growth) was 103%. The “Mean % growth (n = 2) for 100.0 µM probe concentration” value (SK-N-MC; ± SEM 8 % growth) was -72%, the inhibition [8] was -5.8% and the inhibition [9] was 48%. The inhibition [10] was 98%, the TGI ([11]; Homo sapiens, Lung NCI-1-1460) was 11 µM and the CC50 ([11]; Homo sapiens, Lung NCI-1-1460, read-out: LC50 (the source's name)) was greater than 100 µM. The “Mean % growth (n = 2) for 0.01 µM probe concentration” value ([11]; ± SEM 1 % growth) was 98%, the “Mean % growth (n = 2) for 10.0 µM probe concentration” value ([11]; ± SEM 1 % growth) was 2% and the “Mean % growth (n = 2) for 1.0 µM probe concentration” value ([11]; ± SEM 2 % growth) was 50%. The “Mean % growth (n = 2) for 0.1 µM probe concentration” value ([11]; ± SEM 3 % growth) was 82%, the “Mean % growth (n = 2) for 100.0 µM probe concentration” value ([11]; ± SEM 12 % growth) was -45% and the inhibition [12] was 33%. It also gave an inhibition [13] of 23%, an inhibition [14] of 72% and an inhibition [15] of 31.9%. The IC50 [16, 31] was greater than 100 µM, the TGI [16, 31] was greater than 100 µM and the CC50 ([16]; Homo sapiens, Lymphoma1-1331-IJ- JAl, read-out: LC50 (the source's name)) was greater than 100 µM. The “Mean % growth (n = 2) for 10.0 µM probe concentration” value ([16]; ± SEM 1 % growth) was 98%, the “Mean % growth (n = 2) for 0.1 µM probe concentration” value ([16]; ± SEM 5 % growth) was 103% and the “Mean % growth (n = 2) for 1.0 µM probe concentration” value ([16]; ± SEM 6 % growth) was 97%. The “Mean % growth (n = 2) for 100.0 µM probe concentration” value ([16]; ± SEM 7 % growth) was 80%, the “Mean % growth (n = 2) for 0.01 µM probe concentration” value ([16]; ± SEM 8 % growth) was 96% and the inhibition [17] was 13%. It also gave an inhibition [18] of 22%, an inhibition [19] of 84% and an inhibition [20] of 78%. It also gave an inhibition [21] of 70%, an inhibition [22] of 76% and an inhibition [23] of 20%. The inhibition (Rattus norvegicus) was 24.9%, the inhibition [24] was 20% and the inhibition [25] was 33%. It also gave an inhibition [26] of 8% and an inhibition [27] of 28%.

Compound `Cn1cc(Cl)c2c(Oc3c(F)cc(Nc4cc(Cl)nc(N)n4)cc3F)ccnc21` [BAY-4900] has a residual activity [28] of 98%, an inhibition [29] of -6.8% and an inhibition [30] of -6.73%.
